Reference: the kinase profiling compilation of Christmann-Franck et al. (2016)

What was measured:
Assay in all cases: KINOMEscan competition binding
Conditions in all cases: compound 10.0 µM
[1] = test system: CPK1 (P.falciparum)
[2] = test system: EGFR (human), P00533 [P753S; 747-752 del]
[3] = target: ROCK1 (human) (UniProt Q13464)
[4] = target: ERBB3 (human) (UniProt P21860)
[5] = target: IRAK4 (human) (UniProt Q9NWZ3)
[6] = test system: EGFR (human), P00533 [G719S]
[7] = target: CDKL5 (human) (UniProt O76039)
[8] = target: YSK4 (human) (UniProt Q56UN5)
Sequence of YSK4 (human) (Q56UN5 whole entry, looked up): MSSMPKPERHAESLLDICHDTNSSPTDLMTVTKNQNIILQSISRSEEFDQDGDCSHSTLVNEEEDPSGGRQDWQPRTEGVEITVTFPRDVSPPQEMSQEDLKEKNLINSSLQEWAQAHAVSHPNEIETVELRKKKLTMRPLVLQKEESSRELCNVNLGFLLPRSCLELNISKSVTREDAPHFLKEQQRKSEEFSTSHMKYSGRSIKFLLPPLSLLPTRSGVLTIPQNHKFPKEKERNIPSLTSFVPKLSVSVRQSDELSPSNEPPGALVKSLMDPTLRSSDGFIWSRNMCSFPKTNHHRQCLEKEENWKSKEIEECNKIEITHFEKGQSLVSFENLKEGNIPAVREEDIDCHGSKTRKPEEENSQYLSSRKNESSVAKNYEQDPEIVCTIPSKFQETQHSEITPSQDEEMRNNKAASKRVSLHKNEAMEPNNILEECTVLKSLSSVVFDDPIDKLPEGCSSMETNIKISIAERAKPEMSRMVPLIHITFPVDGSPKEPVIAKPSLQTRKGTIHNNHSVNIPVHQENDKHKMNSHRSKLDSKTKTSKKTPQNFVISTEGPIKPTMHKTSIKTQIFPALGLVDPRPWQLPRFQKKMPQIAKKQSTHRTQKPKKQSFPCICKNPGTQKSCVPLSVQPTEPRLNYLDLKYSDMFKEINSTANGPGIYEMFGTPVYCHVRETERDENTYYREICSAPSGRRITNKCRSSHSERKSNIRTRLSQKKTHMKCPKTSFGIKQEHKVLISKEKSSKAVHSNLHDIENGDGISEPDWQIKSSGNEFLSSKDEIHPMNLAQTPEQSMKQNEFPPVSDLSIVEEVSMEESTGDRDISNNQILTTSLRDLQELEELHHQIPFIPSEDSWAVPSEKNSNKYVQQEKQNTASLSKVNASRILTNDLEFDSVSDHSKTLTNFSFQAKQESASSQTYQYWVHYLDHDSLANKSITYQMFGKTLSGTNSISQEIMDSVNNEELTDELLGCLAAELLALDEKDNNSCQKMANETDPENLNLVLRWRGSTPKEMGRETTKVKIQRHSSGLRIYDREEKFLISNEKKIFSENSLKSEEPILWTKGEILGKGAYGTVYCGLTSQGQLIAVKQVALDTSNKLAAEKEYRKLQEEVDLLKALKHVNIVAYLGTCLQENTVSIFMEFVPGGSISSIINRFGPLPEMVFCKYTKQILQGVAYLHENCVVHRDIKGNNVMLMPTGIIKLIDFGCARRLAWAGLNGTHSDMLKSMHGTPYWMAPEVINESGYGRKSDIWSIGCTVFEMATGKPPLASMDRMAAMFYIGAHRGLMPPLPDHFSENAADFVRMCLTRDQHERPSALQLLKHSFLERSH

[9] = target: MAP3K15 (human) (UniProt Q6ZN16)
Sequence of MAP3K15 (human) (Q6ZN16 whole entry, looked up): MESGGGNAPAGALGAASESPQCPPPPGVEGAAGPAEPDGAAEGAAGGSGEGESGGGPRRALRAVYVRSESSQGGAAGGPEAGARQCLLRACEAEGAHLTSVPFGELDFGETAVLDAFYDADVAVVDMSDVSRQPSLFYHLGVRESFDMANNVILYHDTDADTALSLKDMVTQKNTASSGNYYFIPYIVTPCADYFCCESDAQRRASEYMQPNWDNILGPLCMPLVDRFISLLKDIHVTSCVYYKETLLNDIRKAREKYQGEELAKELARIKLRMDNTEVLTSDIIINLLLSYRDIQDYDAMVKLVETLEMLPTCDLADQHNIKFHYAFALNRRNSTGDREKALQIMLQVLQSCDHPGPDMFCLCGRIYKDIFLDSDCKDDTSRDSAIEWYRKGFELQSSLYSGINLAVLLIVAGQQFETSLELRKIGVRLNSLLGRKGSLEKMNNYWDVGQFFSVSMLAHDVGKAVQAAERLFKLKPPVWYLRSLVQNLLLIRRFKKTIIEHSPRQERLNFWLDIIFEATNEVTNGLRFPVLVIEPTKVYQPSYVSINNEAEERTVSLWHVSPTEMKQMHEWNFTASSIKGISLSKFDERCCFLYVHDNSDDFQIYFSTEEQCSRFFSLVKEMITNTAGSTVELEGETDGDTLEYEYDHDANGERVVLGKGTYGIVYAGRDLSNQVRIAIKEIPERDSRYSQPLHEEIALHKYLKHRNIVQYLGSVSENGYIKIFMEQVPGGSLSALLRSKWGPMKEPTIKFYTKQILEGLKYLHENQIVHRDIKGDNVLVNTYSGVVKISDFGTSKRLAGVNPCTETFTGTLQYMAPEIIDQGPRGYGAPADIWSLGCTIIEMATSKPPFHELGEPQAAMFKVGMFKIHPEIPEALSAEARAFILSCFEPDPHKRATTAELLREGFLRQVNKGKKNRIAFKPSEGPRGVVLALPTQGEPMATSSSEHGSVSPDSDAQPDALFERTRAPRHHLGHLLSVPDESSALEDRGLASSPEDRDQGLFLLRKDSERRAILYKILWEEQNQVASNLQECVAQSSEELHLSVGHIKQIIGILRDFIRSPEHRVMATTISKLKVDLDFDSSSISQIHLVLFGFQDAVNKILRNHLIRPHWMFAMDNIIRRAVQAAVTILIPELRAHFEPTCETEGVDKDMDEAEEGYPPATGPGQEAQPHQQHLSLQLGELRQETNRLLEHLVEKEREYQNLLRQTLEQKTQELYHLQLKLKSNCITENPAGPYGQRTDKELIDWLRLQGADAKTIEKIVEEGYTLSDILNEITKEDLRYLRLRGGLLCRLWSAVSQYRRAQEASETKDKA

[10] = target: CDK4 CCND1 (human) (UniProt P11802+P24385)
[11] = target: MAK (human) (UniProt P20794)
[12] = target: CDKL3 (human) (UniProt Q8IVW4)
[13] = target: PLK2 (human) (UniProt Q9NYY3)
[14] = target: MAP3K13 (human) (UniProt O43283)
[15] = test system: PIK3CA (human), P42336 [C420R]
Sequence of PIK3CA (human), P42336 [C420R] (P42336 whole entry C420R, looked up): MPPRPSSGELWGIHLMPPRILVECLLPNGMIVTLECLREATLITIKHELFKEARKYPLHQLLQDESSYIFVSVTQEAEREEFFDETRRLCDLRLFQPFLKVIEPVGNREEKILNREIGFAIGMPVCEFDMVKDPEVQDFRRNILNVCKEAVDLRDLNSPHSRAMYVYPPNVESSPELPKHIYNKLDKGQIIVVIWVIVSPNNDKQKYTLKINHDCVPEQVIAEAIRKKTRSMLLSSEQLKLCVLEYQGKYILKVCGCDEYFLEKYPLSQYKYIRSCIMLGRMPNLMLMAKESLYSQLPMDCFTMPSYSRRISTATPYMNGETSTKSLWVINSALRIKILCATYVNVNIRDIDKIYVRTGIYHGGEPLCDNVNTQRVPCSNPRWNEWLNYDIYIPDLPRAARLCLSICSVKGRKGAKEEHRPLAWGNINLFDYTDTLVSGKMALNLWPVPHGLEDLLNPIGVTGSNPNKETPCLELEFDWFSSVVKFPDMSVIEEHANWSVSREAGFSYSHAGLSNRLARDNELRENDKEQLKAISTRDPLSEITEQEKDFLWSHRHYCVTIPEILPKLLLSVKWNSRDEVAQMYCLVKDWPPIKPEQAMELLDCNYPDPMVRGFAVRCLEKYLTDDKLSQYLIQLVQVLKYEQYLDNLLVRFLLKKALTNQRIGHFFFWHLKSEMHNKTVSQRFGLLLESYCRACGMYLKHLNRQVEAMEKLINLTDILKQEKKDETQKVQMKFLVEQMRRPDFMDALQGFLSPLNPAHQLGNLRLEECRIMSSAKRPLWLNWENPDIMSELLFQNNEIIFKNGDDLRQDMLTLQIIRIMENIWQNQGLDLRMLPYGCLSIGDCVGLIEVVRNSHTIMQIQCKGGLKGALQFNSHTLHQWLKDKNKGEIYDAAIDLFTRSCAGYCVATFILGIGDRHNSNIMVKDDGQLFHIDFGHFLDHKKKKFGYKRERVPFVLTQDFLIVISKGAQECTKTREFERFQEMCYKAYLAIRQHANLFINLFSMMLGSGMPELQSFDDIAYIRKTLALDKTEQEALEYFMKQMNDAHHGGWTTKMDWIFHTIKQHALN

[16] = target: PIK3CG (human) (UniProt P48736)
[17] = target: TIE1 (human) (UniProt P35590)
[18] = target: VRK2 (human) (UniProt Q86Y07)
[19] = target: TRPM6 (human) (UniProt Q9BX84)
[20] = target: TBK1 (human) (UniProt Q9UHD2)
[21] = target: NEK4 (human) (UniProt P51957)
[22] = test system: PIK3CA (human), P42336 [E545K]
Sequence of PIK3CA (human), P42336 [E545K] (P42336 whole entry E545K, looked up): as the sequence (P42336 whole entry C420R, looked up) above, with R420C, E545K counted along it

[23] = target: PIP4K2C (human) (UniProt Q8TBX8)
[24] = target: ERN1 (human) (UniProt O75460)
[25] = target: HUNK (human) (UniProt P57058)
[26] = target: EPHB6 (human) (UniProt O15197)
[27] = target: MATK (human) (UniProt P42679)
[28] = test system: KIT (human), P10721 [V559D/T670I]
[29] = target: SNRK (human) (UniProt Q9NRH2)
Sequence of SNRK (human) (Q9NRH2 whole entry, looked up): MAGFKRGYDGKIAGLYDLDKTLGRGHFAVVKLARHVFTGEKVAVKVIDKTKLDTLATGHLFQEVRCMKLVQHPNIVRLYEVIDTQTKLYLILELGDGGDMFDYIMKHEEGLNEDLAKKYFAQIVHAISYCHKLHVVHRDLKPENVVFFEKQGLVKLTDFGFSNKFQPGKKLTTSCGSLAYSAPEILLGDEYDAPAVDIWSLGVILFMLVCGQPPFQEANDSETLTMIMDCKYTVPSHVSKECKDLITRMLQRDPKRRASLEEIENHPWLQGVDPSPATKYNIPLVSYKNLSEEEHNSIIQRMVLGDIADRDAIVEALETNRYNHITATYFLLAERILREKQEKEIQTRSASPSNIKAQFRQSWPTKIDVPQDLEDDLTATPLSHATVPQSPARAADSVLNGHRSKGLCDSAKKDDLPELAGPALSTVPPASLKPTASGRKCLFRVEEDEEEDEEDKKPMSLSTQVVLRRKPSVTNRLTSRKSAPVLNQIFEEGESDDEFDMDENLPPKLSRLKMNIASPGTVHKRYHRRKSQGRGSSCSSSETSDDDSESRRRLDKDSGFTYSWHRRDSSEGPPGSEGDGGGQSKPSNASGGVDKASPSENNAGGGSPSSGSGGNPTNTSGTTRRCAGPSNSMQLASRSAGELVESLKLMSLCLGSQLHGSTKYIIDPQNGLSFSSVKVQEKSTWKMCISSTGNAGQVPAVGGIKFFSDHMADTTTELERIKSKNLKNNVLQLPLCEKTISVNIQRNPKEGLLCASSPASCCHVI

[30] = target: DYRK2 (human) (UniProt Q92630)
[31] = target: MET (human) (UniProt P08581)
[32] = target: STK32A (human) (UniProt Q8WU08)
Sequence of STK32A (human) (Q8WU08 whole entry, looked up): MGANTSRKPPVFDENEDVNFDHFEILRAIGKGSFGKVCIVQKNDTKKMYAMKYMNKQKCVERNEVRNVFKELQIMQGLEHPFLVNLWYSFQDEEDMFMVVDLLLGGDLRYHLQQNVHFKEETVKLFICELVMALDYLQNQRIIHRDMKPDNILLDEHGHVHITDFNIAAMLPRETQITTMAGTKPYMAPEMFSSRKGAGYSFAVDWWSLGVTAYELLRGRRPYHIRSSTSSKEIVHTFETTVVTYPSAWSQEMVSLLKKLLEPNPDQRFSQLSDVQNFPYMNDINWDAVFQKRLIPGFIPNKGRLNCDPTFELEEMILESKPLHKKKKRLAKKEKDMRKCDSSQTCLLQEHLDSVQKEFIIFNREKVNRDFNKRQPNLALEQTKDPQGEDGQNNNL

[33] = target: CSNK1A1 (human) (UniProt P48729)
[34] = target: GRK4 (human) (UniProt P32298)
[35] = target: PKN3 (M.tuberculosis) (UniProt Q6P5Z2)
[36] = target: GRK1 (human) (UniProt Q15835)
[37] = target: NEK3 (human) (UniProt P51956)
[38] = target: HIPK4 (human) (UniProt Q8NE63)
[39] = target: MAP2K7 (human) (UniProt O14733)
[40] = test system: ABL1 (human), P00519 [E255K]

Row | SMILES | kinase still bound, per cent of control [3] [%] | kinase still bound, per cent of control [4] [%] | kinase still bound, per cent of control [5] [%] | kinase still bound, per cent of control [7] [%] | kinase still bound, per cent of control [8] [%] | kinase still bound, per cent of control [9] [%] | kinase still bound, per cent of control [11] [%] | kinase still bound, per cent of control [12] [%] | kinase still bound, per cent of control [13] [%] | kinase still bound, per cent of control [14] [%] | kinase still bound, per cent of control [15] [%] | kinase still bound, per cent of control [18] [%] | kinase still bound, per cent of control [19] [%] | kinase still bound, per cent of control [20] [%] | kinase still bound, per cent of control [21] [%] | kinase still bound, per cent of control [22] [%] | kinase still bound, per cent of control [23] [%] | kinase still bound, per cent of control [24] [%] | kinase still bound, per cent of control [25] [%] | kinase still bound, per cent of control [26] [%] | also measured
1 | CCCS(=O)(=O)Nc1ccc(F)c(C(=O)c2c[nH]c3ncc(-c4ccc(Cl)cc4)cc23)c1F | 85 | 73 | 86 | 100 | 53 | 100 | 100 | 100 | 97 | 100 | 100 | 100 | 100 | 100 | 95 | 100 | 100 | 82 | 9.1 | 5.8 | kinase still bound, per cent of control [1]: 0%; kinase still bound, per cent of control [2]: 78%; kinase still bound, per cent of control [6]: 50%; kinase still bound, per cent of control [10]: 52%; kinase still bound, per cent of control [16]: 19%; kinase still bound, per cent of control [17]: 38%; kinase still bound, per cent of control [27]: 100%; kinase still bound, per cent of control [28]: 60%; kinase still bound, per cent of control [29]: 100%; kinase still bound, per cent of control [30]: 100%; kinase still bound, per cent of control [31]: 53%; kinase still bound, per cent of control [32]: 100%; kinase still bound, per cent of control [33]: 90%; kinase still bound, per cent of control [34]: 100%; kinase still bound, per cent of control [35]: 78%; kinase still bound, per cent of control [36]: 100%
2 | CCC(=O)N1CCN(c2ccc(-n3c(=O)ccc4cnc5ccc(-c6cnc7ccccc7c6)cc5c43)cc2C(F)(F)F)CC1 | 53 | 44 | 90 | 100 | 38 | 100 | 68 | 92 | 85 | 100 | 0.7 | 100 | 100 | 93 | 86 | 0.6 | 58 | 100 | 91 | 80 | kinase still bound, per cent of control [1]: 36%; kinase still bound, per cent of control [37]: 100%; kinase still bound, per cent of control [10]: 100%; kinase still bound, per cent of control [17]: 100%; kinase still bound, per cent of control [27]: 97%; kinase still bound, per cent of control [38]: 4.6%; kinase still bound, per cent of control [29]: 60%; kinase still bound, per cent of control [30]: 86%; kinase still bound, per cent of control [31]: 84%; kinase still bound, per cent of control [39]: 100%; kinase still bound, per cent of control [32]: 100%; kinase still bound, per cent of control [34]: 90%; kinase still bound, per cent of control [35]: 64%; kinase still bound, per cent of control [36]: 99%
3 | COc1cc(N2CCN(C)CC2)ccc1Nc1nc(N)c(C(=O)c2c(Cl)cccc2Cl)s1 | 79 | 50 | 96 | 100 | 98 | 51 | 26 | 86 | 91 | 100 | 100 | 100 | 5.2 | 100 | 96 | 100 | 46 | 99 | 100 | 63 | kinase still bound, per cent of control [40]: 90%; kinase still bound, per cent of control [2]: 89%; kinase still bound, per cent of control [6]: 88%; kinase still bound, per cent of control [37]: 89%; kinase still bound, per cent of control [16]: 86%; kinase still bound, per cent of control [17]: 100%; kinase still bound, per cent of control [27]: 61%; kinase still bound, per cent of control [38]: 24%; kinase still bound, per cent of control [28]: 100%; kinase still bound, per cent of control [29]: 82%; kinase still bound, per cent of control [30]: 89%; kinase still bound, per cent of control [31]: 100%; kinase still bound, per cent of control [39]: 100%; kinase still bound, per cent of control [32]: 88%; kinase still bound, per cent of control [33]: 84%; kinase still bound, per cent of control [34]: 85%; kinase still bound, per cent of control [35]: 80%; kinase still bound, per cent of control [36]: 100%
4 | O=C(O)c1ccc(Nc2ncc3c(n2)-c2ccc(Cl)cc2C(c2c(F)cccc2F)=NC3)cc1 | 63 | 74 | 100 | 100 | 62 | 82 | 78 | 100 | 29 | 100 | 67 | 100 | 100 | 100 | 66 | 100 | 26 | 100 | 59 | 41 | kinase still bound, per cent of control [1]: 63%; kinase still bound, per cent of control [2]: 28%; kinase still bound, per cent of control [37]: 100%; kinase still bound, per cent of control [10]: 98%; kinase still bound, per cent of control [16]: 100%; kinase still bound, per cent of control [27]: 84%; kinase still bound, per cent of control [38]: 31%; kinase still bound, per cent of control [29]: 74%; kinase still bound, per cent of control [31]: 49%; kinase still bound, per cent of control [39]: 100%; kinase still bound, per cent of control [32]: 54%; kinase still bound, per cent of control [33]: 73%; kinase still bound, per cent of control [34]: 100%; kinase still bound, per cent of control [35]: 96%; kinase still bound, per cent of control [36]: 100%
